According to patent publication US10722584B2, “Increasing the bioavailability of flavan-3-ols by polyphenols” (NESTEC S.A., priority 2012, dated 2020):

Parameters: species or system human
Conditions: in vivo
Source text: Method: 12 healthy male (20-50 yrs) were enrolled in a randomized and double blind crossover design of four treatments with a minimum of 1 week wash-out period between each treatment was applied.
In the present invention, only 2 treatments are object of investigation: green tea extract (control) and green tea extract+hesperitin 7-glucoside (intervention).
Each treatment was formulated to contain 1 g equivalent of Choladi green tea extract. Subjects in the intervention group received a mixture of 1 g of green tea extract and 100 mg of hesperitin-7-glucoside.
After ingestion, plasma was collected over 24 h. Plasma EGCG analyses were performed by HPLC coupled with an electrochemical detection.
EGCG bioavailability was calculated from plasma kinetics by measuring the Area Under its concentration-time Curve (AUC).

For `COc1ccc([C@@H]2CC(=O)c3c(O)cc(O[C@@H]4O[C@H](CO)[C@@H](O)[C@H](O)[C@H]4O)cc3O2)cc1O` [hesperitin 7-glucoside], the “absorption of EGCG when flavan-3-ols are co-administered” value was “significantly enhanced”.
